How the values were obtained:
[1] = target: T1, DUSP1 (Homo sapiens, UniProt P28562); assay: cellular thermal shift assay (CETSA), Western blot; type: cell-based; settings: PC3 cells treated 2 h with 0.01-100 µmol/L; heated at 53 °C for 3 min
T1 construct: endogenous protein in human PC3 prostate cancer cells, detected by Western blot (Abcam ab61201)
T1 sequence (P28562 1-367): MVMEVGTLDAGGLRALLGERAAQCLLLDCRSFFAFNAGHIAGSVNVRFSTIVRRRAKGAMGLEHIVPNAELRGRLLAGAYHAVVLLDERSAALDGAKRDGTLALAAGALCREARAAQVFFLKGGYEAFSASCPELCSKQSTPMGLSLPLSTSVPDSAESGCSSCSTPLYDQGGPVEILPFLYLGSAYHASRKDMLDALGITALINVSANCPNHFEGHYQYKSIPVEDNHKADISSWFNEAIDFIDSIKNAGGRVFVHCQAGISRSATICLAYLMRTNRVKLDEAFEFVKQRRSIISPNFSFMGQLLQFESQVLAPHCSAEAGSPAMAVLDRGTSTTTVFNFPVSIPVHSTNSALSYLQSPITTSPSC

[2] = target: T2, TNFSF9 (Homo sapiens, UniProt P41273); assay: cellular thermal shift assay (CETSA), Western blot; type: cell-based; settings: PC3 cells treated 2 h with 0.01-100 µmol/L; heated at 53 °C for 3 min
T2 construct: endogenous protein in human PC3 prostate cancer cells, detected by Western blot (Abcam ab68185)
T2 sequence (P41273 whole entry): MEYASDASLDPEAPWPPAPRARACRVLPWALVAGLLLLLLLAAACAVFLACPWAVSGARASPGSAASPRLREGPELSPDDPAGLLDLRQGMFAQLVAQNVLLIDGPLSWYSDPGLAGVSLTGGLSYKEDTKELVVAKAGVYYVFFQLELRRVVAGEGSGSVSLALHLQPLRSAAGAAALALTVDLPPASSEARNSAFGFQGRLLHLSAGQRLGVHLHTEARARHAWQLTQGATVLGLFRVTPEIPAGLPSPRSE

SMILES: CCN(CC)CCOc1ccc(C[C@H](NC(=O)c2ccc(OCc3ccccc3)cc2)C(=O)N[C@H](CO)Cc2ccccc2)cc1 [HXL131]
- cellular thermal shift assay (CETSA), Western blot [1]: HXL131 could stably bind DUSP1 and TNFSF9 proteins
- cellular thermal shift assay (CETSA), Western blot [2]: HXL131 could stably bind DUSP1 and TNFSF9 proteins
